# Assays:
# [1] = test system: TNBC cells (MDA-MB-231, MDA-MB-468, SUM159, 4T1, EMT6); experiment: Clonogenic (colony-formation) assay; format: cell-based
# Experimental: We performed a clonogenic assay to check the effect of SU056 on clonal expansion potential of MDA-MB-231, MDA-MB-468, SUM159, 4T1, EMT6, and E0771 cells on tissue culture plates. MDA-MB-231 (1000 cells), MDA-MB-468 (1000 cells), SU159 (300 cells), 4T1 (300 cells), and EMT6 (300 cells), were seeded and grown for 24 h in complete media onto 12-well culture plate. Cells were treated with the specific concentrations of SU056 for 7–10 days in complete media. Plates were processed for crystal violet staining, and the number of colonies was counted for each well. Colonies were scanned for confluency area using a Tecan multimode plate reader.
# [2] = test system: 4T1 tumor; experiment: Syngeneic mouse TNBC model; format: in vivo; conditions: 50 mg/kg oral gavage, Balb/cJ mice
# Experimental: (§1) Female NOD-Scid gamma (NSG, Homozygous for Prkdc, Hemizygous for Il2rg<tm1Wjl>) (Strain #005557) and Balb/cJ (Strain#000651) (7–8 weeks old) mice were purchased from the Jackson Laboratory and housed under standard laboratory conditions. The Institutional Animal Care & Use Program of Oregon Health and Science University approved the protocol (#IP00003247). MDA-MB-231 (3 x 10^6), MDA-MB-468 (5 x 10^6), 4T1 (1 x 10^5) and EMT6 (1 x 10^5) cells were suspended in 100 μL of 1x PBS and injected subcutaneously in each mouse. Tumor growth was monitored regularly and once the tumors reached approximately around 50–100 mm^3, treatment with SU056 (50 mg/kg body weight given by oral gavage, 5 days per week) was started. Tumor size and body weight were measured once a week. At the end of treatment, mice were euthanized via deep anesthesia followed by cervical dislocation. Tumors were excised and weighed. Tumor samples were processed for immunoblotting for different markers.
# [3] = test system: EMT6 tumor; experiment: Syngeneic mouse TNBC model; format: in vivo; conditions: 50 mg/kg oral gavage, Balb/cJ mice
# Experimental: as §1
# [4] = test system: MDA-MB-231, MDA-MB-468 and MCF12A cells; experiment: Global proteome profiling with pathway enrichment; format: cell-based, human; conditions: 1 μM, 12 h, TNBC cells vs vehicle
# Experimental: MDA-MB-231, MDA-MB-468, and MCF12A cells were grown to 80% confluence and then treated with DMSO (vehicle control) or SU056 (1 μM) for 12 h. Cells were washed twice with phosphate-buffered saline (PBS), harvested by scaping, and centrifuged. Cells were lysed by vortexing in 100 mM triethylammonium bicarbonate (TEAB, Thermo Fisher Scientific) in 1% sodium dodecyl sulfate (SDS). The lysate was centrifuged, and the supernatant was retained. A bicinchoninic acid assay (BCA, Thermo Scientific, Rockville, IL) was used to measure protein concentration and 50 μg of protein per sample was subjected to disulfide bond reduction using 10 mM TCEP (Sigma Aldrich) for 1 h at 55°C. Cysteine resides were then alkylated with iodoacetamide (Sigma Aldrich) for 30 min at room temperature in the dark. […] All samples were analyzed in triplicate.
# Using a Dionex Ultimate Rapid Separation Liquid Chromatography system (Thermo Fisher Scientific), a 3 μL injection of the combined TMT-labeled peptide solution was loaded onto a PepMap 100 C18 trap column (Thermo Fisher Scientific) at a rate of 5 μL/min for 10 min. […] The flow rate was set to 0.6 μL/min throughout the gradient and each sample was analyzed in triplicate. […]
# Raw LC-MS/MS data was analyzed using MaxQuant[50] searching against the Swiss-Prot human reference proteome database (20,626 entries as of 2020). […]
# [5] = test system: TNBC cells (MDA-MB-231, MDA-MB-468, SUM159); experiment: Immunoblot assay of cell lysates; format: cell-based, human
# Experimental: MDA-MB-231, MDA-MB-468, and SUM159 cells were grown to 60–70% confluency and treated with DMSO and SU056 (1 μM) for 12 and 24 h. After the specific treatment time was over, total cell lysates were prepared in non-denaturing lysis buffer. For protein lysate from tumors: randomly selected frozen sample; three from vehicle and SU056 treated group were homogenized in non-denaturing lysis buffer at 4°C for 5 min. 10 μg of protein lysate per sample was resolved on 8–16% SDS-PAGE. Membranes were probed with specific primary antibodies followed by detection with HRP-conjugated appropriate secondary antibodies, visualized by enhanced chemiluminescence detection system, and imaged using an iBright imaging system (Thermo Fisher, USA).
compound,measurement,setting,value
"O=C1OCC2=C1C(c1cccc(F)c1)c1cc3c(cc1N2CCO)OCO3 (stereo not drawn) [SU056, 9-(3-fluorophenyl)-5-(2-hydroxyethyl)-6,9-dihydro-[1,3]dioxolo[4,5-g]furo[3,4-b]quinolin-8(5H)-one]",clonogenic potential,"[1]; 0.5 μM, all TNBC cell lines",strong suppression
same,number of colonies formed compared to untreated controls,"[1]; 0.1, 0.25, and 0.5 μM, 7–10 days",significantly decreased
same,primary tumor load reduced compared with vehicle control,[2],45.53%
same,tumor weight reduced compared with vehicle control,[2],61%
same,reduction in tumor weight,[3],42.53%
same,tumor growth decreased in comparison to control,[3],37.47%
same,protein translation processes (proteomic pathway analysis),[4],modulated
same,"RPLs (RPL36, RPL35, RPL32, RPL23A, RPL15, RPL11, RPL9)","[5]; 1 μM, 12 and 24 h",decreased
same,YB-1 expression,"[5]; 1 μM, 12 and 24 h",decreased
same,c-Myc expression,"[5]; 1 μM, 12 and 24 h",decreased
same,expression of RPSs,"[5]; 1 μM, 12 and 24 h",lower expression
same,levels of translation initiation factors,"[5]; 1 μM, 12 and 24 h",decreased
same,overall levels of mTOR,"[5]; 1 μM, 12 and 24 h",decreased
same,phosphorylation of mTOR (S2448),"[5]; 1 μM, 12 and 24 h",inhibited
same,phosphorylation of p70S6 kinase (T389 and S371) and S6R (S235/S236),"[5]; 1 μM, 12 and 24 h",decreased
same,"phospho-histone H3 (Ser10), mitotic phase marker",[5]; 12 and 24 h,arrests TNBC cells in the mitotic phase
same,"integrated stress response activation (PERK, eIF2α, ATF4)","[5]; MDA-MB-231 and MDA-MB-468, 1 μM",did not induce
same,cell cycle regulatory proteins (p21 and p27),"[5]; MDA-MB-231 and MDA-MB-468, 1 μM, 12 and 24 h",moderate increase

# Reference: article PMC11148772, “Inhibition of protein translational machinery in triple-negative breast cancer as a promising therapeutic strategy” (Cell Reports Medicine, 2024)
